# Laboratory results as given in article PMC3892053, “Pharmacokinetic/pharmacodynamic modeling for the determination of a cimicoxib dosing regimen in the dog” (BMC Veterinary Research, 2013).
# Read-outs that look alike come from different tables or passages of the source.
# Columns and labels:
# [1] = Plasma half-life after oral administration in four dog breeds (Study 2); type: in vivo; conditions: both sexes, 2 mg/kg
# Experimental: Four different sized-breeds from four different private breeders were tested (ten individuals were used from each breed): Anglo-French Hounds, Pointers, Cavalier King Charles Spaniels and Bernese Mountain Dogs. The bodyweights of the dogs ranged between [27.2, 37.4], [16.8, 22.3], [7, 9.8], [44.5, 62.5] kg; the ages were [0.6, 2.5], [1.9, 11.8], [1.7, 6.7], [1.4, 6.4] years for the Anglo-French Hounds, Pointers, Cavalier King Charles Spaniels and Bernese Mountain Dogs breeds, respectively. The sex ratios (male/female) were 5/5, 6/4, 4/6 and 4/6 for these same breeds. Prior to the experiment, all the animals underwent a clinical examination by a veterinarian, along with a complete biochemistry profile. No clinically important abnormality was noted during these examinations.
# The half-life of elimination of cimicoxib was studied in four different sized breeds (40 dogs). Two mg/kg of cimicoxib was administered orally, in the form of 10 and 20 mg (hard gelatin capsules, Vetoquinol). For each dog, four blood samples (5 mL, heparinized tubes) were taken, at 6 h, 8 h, 10 h and 24 h after administration of cimicoxib, centrifuged (3000 G) and stored (- 20°C).
# (§1) Plasma samples were analyzed by a High Performance Liquid Chromatography (HPLC) method using ultraviolet (UV) detection. Briefly, an internal standard (UR-8877) and cimicoxib (UR-8880) were extracted from plasma by a solid liquid (methanol) extraction process using HLB Oasis cartridges (Waters). The extraction yield was about 90%. The HPLC apparatus consists of a pump system equipped with an automatic injector and an UV detector (242 nm). […] The mobile phase was a mixture of 0.65 L of ultra-pure water and 0.35 L of acetonitrile which was delivered at a flow rate of 1 mL per min. Under these conditions, cimicoxib (UR-8880) and the internal standard (UR-8877) were eluted at retention times of 6 to 7 min and 10 to 11 min, respectively. The method was linear over the calibration range of 0.01 to 5 μg/mL using a linear model weighted by 1/X^2. Within-day and day-to-day coefficients of variation were less than 9% and the accuracy ranged from 94 to 103%, indicating an appropriate precision and accuracy for the analytical method. The lack of interference from endogenous compounds was verified on blank plasma from untreated dogs, establishing the specificity of the method. The validated limit of quantification was 0.01 μg/mL.
# Half-life was estimated by log-linear regression (estimating the slope) using the non-compartmental approach implemented in Winnonlin.
# [2] = Plasma pharmacokinetics after single intravenous administration in beagle dogs; type: in vivo, dog; conditions: mean ± SD; for HL (plasma half-life): IV 2 mg/kg; for AUC / clearance / half-life / Vd: beagle, dog, plasma, iv, 2 mg/kg; for clearance: read-out: CL (plasma clearance) (converted); for half-life: read-out: HL (plasma half-life) (converted); for Vd: read-out: V (volume of distribution)
# Experimental: To verify this hypothesis, a PK investigation of cimicoxib following IV administration (bolus, 2 mg/kg) was performed on the 12 dogs at least 2 months after the completion of the PK/PD study. Blood samples were obtained from the jugular vein by direct puncture at time 0 (control just before the IV administration) and then 2, 15, 30, 60, 90 min. and 2, 3, 4, 6, 9, 12, 24, 30 and 48 hours after the test article administration.
# as §1
# For the IV study, a non-compartmental analysis was used to determined PK parameters.
# [3] = tested on: kaolin-induced paw inflammation; test: Simulation of dose-effect relationship with the PK/PD model (EM dog parameters); conditions: simulated, oral, dose-linearity assumed
# Experimental: For higher cimicoxib doses, only the duration of the maximum effect was increased. […] Figure 6 Simulated values of the effects of the cimicoxib for different oral doses of cimicoxib for the 4 endpoints modeled using a PK/PD model in the 8 extensive metabolizer dogs. Effects of cimicoxib vs. time (h) were simulated using the corresponding PK/PD model for different oral doses of cimicoxib (from 0.1 to 8 mg/kg) on the rectal temperature (°C), the normalized vertical ground reaction force of the paw, the creeping speed (m/s) and the overall clinical lameness score. PK and PD parameters used for simulations were the means of those obtained in the 8 extensive metabolizer dogs. The thick line was obtained with 2 mg/kg, the dose that has been selected for confirmatory clinical trials.
smiles,measurement,setting,value
COc1ccc(-c2c(Cl)ncn2-c2ccc(S(N)(=O)=O)cc2)cc1F [cimicoxib],half-life,"[1]; Anglo-French hound, po, oral 2 mg/kg, Anglo-French hounds (n = 10), read-out: plasma half-life, Maximum (converted)",4 h
same,half-life,"[1]; Anglo-French hound, po, oral 2 mg/kg, Anglo-French hounds (n = 10), read-out: plasma half-life, Mean (converted)",3.2 h
same,half-life,"[1]; Anglo-French hound, po, oral 2 mg/kg, Anglo-French hounds (n = 10), read-out: plasma half-life, Minimum (converted)",2 h
same,half-life,"[1]; Bernese mountain dog, po, oral 2 mg/kg, Bernese mountain dogs (n = 10), read-out: plasma half-life, Maximum (converted)",5.8 h
same,half-life,"[1]; Bernese mountain dog, po, oral 2 mg/kg, Bernese mountain dogs (n = 10), read-out: plasma half-life, Mean (converted)",4.4 h
same,half-life,"[1]; Bernese mountain dog, po, oral 2 mg/kg, Bernese mountain dogs (n = 10), read-out: plasma half-life, Minimum (converted)",3.2 h
same,half-life,"[1]; Cavalier King Charles spaniel, po, oral 2 mg/kg, Cavalier King Charles spaniels (n = 10), read-out: plasma half-life, Maximum (converted)",3.5 h
same,half-life,"[1]; Cavalier King Charles spaniel, po, oral 2 mg/kg, Cavalier King Charles spaniels (n = 10), read-out: plasma half-life, Mean (converted)",2.7 h
same,half-life,"[1]; Cavalier King Charles spaniel, po, oral 2 mg/kg, Cavalier King Charles spaniels (n = 10), read-out: plasma half-life, Minimum (converted)",1.9 h
same,half-life,"[1]; Pointer, po, oral 2 mg/kg, Pointers (n = 10), read-out: plasma half-life, Maximum (converted)",5.9 h
same,half-life,"[1]; Pointer, po, oral 2 mg/kg, Pointers (n = 10), read-out: plasma half-life, Mean (converted)",3.9 h
same,half-life,"[1]; Pointer, po, oral 2 mg/kg, Pointers (n = 10), read-out: plasma half-life, Minimum (converted)",2.5 h
same,half-life,"[1]; oral, the 40 dogs of four breeds, as summarised in Discussion, read-out: terminal half-life",2 to 4 h
same,HL (plasma half-life),[2]; Extensive metabolizers (n = 8),2.72 ± 0.858 h
same,HL (plasma half-life),[2]; Poor metabolizers (n = 4),5.63 ± 0.727 h
same,AUC,[2]; Extensive metabolizers (n = 8),7200 ± 1810 ng·h/mL
same,clearance,[2]; Extensive metabolizers (n = 8),5.17 mL/min/kg
same,half-life,[2]; Extensive metabolizers (n = 8),2.7 ± 0.9 h
same,Vd,[2]; Extensive metabolizers (n = 8),1.12 ± 0.203 L/kg
same,AUC,[2]; Poor metabolizers (n = 4),19200 ± 3150 ng·h/mL
same,clearance,[2]; Poor metabolizers (n = 4),1.83 mL/min/kg
same,half-life,[2]; Poor metabolizers (n = 4),5.6 ± 1.7 h
same,Vd,[2]; Poor metabolizers (n = 4),0.89 ± 0.133 L/kg
same,"dose predicted to give a nearly maximal effect, creeping speed",[3],1.5 mg/kg
same,"dose predicted to give a nearly maximal effect, ground reaction vertical force",[3],3 mg/kg
same,"dose predicted to give a nearly maximal effect, overall clinical lameness score",[3],2 mg/kg
same,"dose predicted to give a nearly maximal effect, rectal temperature",[3],1 mg/kg
